Test results taken from PMC9574867, “Discovery and Characterization of Synthesized and FDA-Approved Inhibitors of Clostridial and Bacillary Collagenases” (Journal of Medicinal Chemistry, 2022).
In brackets after ≈: the same amount, converted by molar mass. Where two headings read alike, the source gives them in different places.

What was measured:
TACE (ADAM-17) = TACE (ADAM-17) (Homo sapiens, UniProt P78536); assay: Human off-target inhibition, TACE; type: biochemical
Protocol: (§1) To assess the selectivity of the compounds over human MMPs and on other bacterial collagenases, selected compounds were tested against ColG-CU and ColH-PD from C. histolyticum and ColA-CU from B. cereus strain ATCC14579. In addition, the compounds were tested on catalytic domains of three human MMPs, which are characterized by different depths of the S1′ binding pocket (MMP-1 (shallow), −2 (intermediate), and −3 (deep)). They were also tested against other important human off-targets, which are involved in gene expression and the processing of TNF-α; these include HDAC-3, -8, TACE (ADAM-17),[33],[34] and COX-1.

[1] = tested on: B. cereus AH187 infection; type: in vivo, Galleria mellonella; conditions: for Survival of infected larvae vs control without inhibitor: 37 °C, 3 days
HDAC-8 = target: T1, HDAC-8 (Homo sapiens, UniProt Q9BY41); assay: Human off-target inhibition, HDAC-8; type: biochemical
T1 sequence (Q9BY41 1-377): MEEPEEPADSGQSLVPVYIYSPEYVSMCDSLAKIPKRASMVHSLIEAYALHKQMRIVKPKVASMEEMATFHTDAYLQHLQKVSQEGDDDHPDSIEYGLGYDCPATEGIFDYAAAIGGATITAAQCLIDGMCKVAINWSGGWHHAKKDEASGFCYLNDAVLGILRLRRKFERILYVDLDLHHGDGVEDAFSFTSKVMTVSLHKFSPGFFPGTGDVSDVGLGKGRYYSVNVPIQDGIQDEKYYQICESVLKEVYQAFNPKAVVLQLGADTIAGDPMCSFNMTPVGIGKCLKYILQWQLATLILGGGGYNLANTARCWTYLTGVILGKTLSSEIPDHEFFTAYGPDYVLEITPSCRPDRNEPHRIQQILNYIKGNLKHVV
Protocol: as §1

[2] = tested on: NHDF cells infected with B. cereus; assay: NHDF infection model, cell morphology/attachment and fibrillar collagen (picrosirius red); type: cell-based, human; conditions: B. cereus infection, 5 h
B. cereus AH187 = assay: B. cereus growth inhibition assay; type: cell-based; conditions: Bacillus cereus, AH187; BHI medium, 37 °C, 48 h, 200–3 μM; read-out: MIC50 (µM) AH187
MMP-1 = target: T2, MMP-1 (Homo sapiens, UniProt P03956); assay: MMP inhibition assay, MMP-1; type: biochemical
T2 construct: catalytic domains of three human MMPs; purchased Sigma-Aldrich
T2 sequence (P03956 98-276 limits assumed): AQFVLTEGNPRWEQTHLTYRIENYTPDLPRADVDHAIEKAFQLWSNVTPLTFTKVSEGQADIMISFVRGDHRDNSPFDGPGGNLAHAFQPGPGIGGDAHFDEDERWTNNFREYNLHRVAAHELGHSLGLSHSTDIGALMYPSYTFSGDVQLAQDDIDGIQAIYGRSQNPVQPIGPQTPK
Protocol: as §1
The MMP inhibition assay (Sigma-Aldrich, Saint Louise, MO) was performed as previously reported and in accordance with the manufacturer’s instructions. The fluorescence signals were measured in a CLARIOstar plate reader (BMG LABTECH, Ortenberg, Germany) at a concentration of 100 μM.

[3] = tested on: NHDF cells infected with B. cereus; assay: NHDF infection model, LDH release; type: cell-based, human; conditions: 5 h
Protocol: We further evaluated the effect of the diphosphonate and hydroxamate compounds on cell morphology, the fibrillar collagen content of the ECM, and cell viability in the infection model. […] Above a concentration of 25 μM, they were both able to sustain the cells during infection. The cells stayed attached and maintained their spindle shape (Figures S7 and S8), and above 50 μM, we observed a significant reduction in LDH release, indicating higher cell viability.
NHDF cells (1 × 10^5, Promo Cell C-12302) per well were seeded in 24-well plates (Greiner) with DMEM medium (Gibco) containing 10% (v/v) fetal calf serum (FCS, Gibco) and 1% (v/v) glutamine (Gibco). Prior to the treatment, the cells were cultured at 37 °C for 24 h with 5% CO2. In brain heart infusion (BHI) medium, B. cereus AH187 bacteria were cultivated to a mid-exponential phase. The culture was centrifuged at 4000g for 7 min at RT before being rinsed and diluted in PBS. […] The cell morphology was monitored with a light microscope (Olympus) using a 20X objective. […]
The manufacturer’s procedure was followed to measure the released LDH amount in the supernatant of NHDF cells. […] The absorbance was measured at 490 nm with a Tecan Infinite M200 plate reader (Tecan, Grödig, Austria). The cytotoxicity was calculated relative to the control (no inhibitor).

HDAC-3 = HDAC-3 (Homo sapiens, UniProt O15379); assay: Human off-target inhibition, HDAC-3; type: biochemical
Protocol: as §1

[4] = tested on: MDCK II cells infected with B. cereus AH187; type: cell-based, canine
in vitro [5] = conditions: dog, MDCK II cells (Madin–Darby canine kidney II)
ColA-CU = ColA-CU (Bacillus cereus, UniProt Q81BJ6); assay: biochemical; type: biochemical, B. cereus strain ATCC14579; conditions: 100 μM; read-out: Percent inhibition of ColA-CU
in vitro [6] = conditions: human, NHDF cells (normal human dermal fibroblasts)
[7] = tested on: B. cereus collagenases released in the NHDF infection model; type: cell-based, B. cereus AH187

Chain of HDAC-3 (O15379 whole entry): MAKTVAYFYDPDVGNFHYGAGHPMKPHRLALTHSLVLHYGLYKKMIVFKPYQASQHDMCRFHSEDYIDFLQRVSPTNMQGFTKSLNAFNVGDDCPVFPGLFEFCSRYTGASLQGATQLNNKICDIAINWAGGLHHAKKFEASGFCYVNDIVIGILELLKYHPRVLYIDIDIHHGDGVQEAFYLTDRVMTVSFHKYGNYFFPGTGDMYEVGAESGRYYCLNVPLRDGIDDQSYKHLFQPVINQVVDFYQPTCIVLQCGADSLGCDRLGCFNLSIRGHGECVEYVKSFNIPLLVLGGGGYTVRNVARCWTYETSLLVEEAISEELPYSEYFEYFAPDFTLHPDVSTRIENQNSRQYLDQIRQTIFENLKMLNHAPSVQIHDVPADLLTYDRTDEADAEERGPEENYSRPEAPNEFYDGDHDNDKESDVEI
Chain of HDAC-3 (Q9Y618 395-489 partner limits assumed): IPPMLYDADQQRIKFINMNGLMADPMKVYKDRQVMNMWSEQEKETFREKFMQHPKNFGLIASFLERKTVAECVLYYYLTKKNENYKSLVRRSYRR
Chain of ColA-CU (Q81BJ6 93-764): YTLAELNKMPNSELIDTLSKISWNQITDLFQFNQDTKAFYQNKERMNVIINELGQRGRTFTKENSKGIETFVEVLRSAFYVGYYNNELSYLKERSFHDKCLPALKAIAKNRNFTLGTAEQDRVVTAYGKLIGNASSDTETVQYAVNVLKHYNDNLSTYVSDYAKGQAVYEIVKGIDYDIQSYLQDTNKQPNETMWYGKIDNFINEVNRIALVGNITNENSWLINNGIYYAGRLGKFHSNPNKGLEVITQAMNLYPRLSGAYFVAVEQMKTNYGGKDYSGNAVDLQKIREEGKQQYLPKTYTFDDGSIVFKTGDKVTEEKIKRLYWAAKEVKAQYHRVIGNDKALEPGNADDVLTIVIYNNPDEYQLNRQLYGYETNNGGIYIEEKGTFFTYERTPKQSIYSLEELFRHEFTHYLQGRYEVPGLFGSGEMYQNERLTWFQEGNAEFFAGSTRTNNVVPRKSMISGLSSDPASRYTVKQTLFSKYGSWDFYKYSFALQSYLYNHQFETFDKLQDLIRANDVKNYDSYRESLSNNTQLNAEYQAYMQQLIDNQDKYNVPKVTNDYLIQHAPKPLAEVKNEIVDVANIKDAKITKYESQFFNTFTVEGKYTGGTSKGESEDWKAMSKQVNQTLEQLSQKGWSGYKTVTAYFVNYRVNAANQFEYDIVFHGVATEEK
Chain of TACE (ADAM-17) (P78536 215-824): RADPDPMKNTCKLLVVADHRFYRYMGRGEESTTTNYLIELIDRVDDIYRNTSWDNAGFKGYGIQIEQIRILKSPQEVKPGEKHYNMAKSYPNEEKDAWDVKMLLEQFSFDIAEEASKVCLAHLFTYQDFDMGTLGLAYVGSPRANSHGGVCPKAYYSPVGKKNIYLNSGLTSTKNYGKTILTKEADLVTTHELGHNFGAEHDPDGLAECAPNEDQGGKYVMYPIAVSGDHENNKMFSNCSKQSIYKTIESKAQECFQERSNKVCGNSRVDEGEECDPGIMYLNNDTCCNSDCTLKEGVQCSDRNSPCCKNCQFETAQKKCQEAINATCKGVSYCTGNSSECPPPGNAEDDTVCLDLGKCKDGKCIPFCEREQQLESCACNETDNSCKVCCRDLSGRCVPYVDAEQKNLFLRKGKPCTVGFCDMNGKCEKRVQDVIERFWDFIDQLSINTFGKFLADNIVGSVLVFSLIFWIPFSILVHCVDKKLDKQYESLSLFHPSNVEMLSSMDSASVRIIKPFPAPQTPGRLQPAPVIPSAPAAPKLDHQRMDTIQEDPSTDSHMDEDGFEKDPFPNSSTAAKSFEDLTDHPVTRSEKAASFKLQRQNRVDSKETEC

Row | Structure (SMILES) | IC50 (TACE (ADAM-17)) [µM] | Increase in survival of infected larvae ([1]; 50 μM) [%] | Increase in survival of infected larvae ([1]; 200 μM) | Survival of infected larvae vs control without inhibitor [1] | IC50 (HDAC-8) [µM] | Concentration above which infected cells were sustained (attached, spindle shape) [2] [µM] | MIC50 (B. cereus AH187) [µM] | IC50 (MMP-1) [µM] | Concentration above which LDH release was significantly reduced [3] | IC50 (HDAC-3) [µM] | TEER of infected MDCK II cells [4] | IC50 (in vitro [5]) [µM] | inhibition at 100 µM (ColA-CU) [%] | IC50 (in vitro [6]) [µM] | Concentration giving complete inhibition of gelatinolytic activity [7] [µM] | Effect on survival of infected larvae ([1]; 25 μM) | Increase in survival of infected larvae ([1]; 100 μM)
1 | O=P(O)(O)c1nc2cc(Cl)c(Cl)cc2nc1P(=O)(O)O [Compound 13, (6,7-Dichloroquinoxaline-2,3-diyl)bis(phosphonic acid)] | > 100 | 5 | about 35% | ameliorated the survival of the larvae in a dose-dependent manner | > 100 | > 25 | 200 (≈ 71.8 µg/mL) | 53 ± 3 | above 50 μM | > 100 | failed to sustain the TEER of the infected cells | > 200 | 71 ± 4 | > 200 | 200 |  | 
2 | O=C(Nc1ccc(Cl)c(Cl)c1)c1ccc2nc(P(=O)(O)O)c(P(=O)(O)O)nc2c1 [Compound 14, (6-((3,4-Dichlorophenyl)carbamoyl)quinoxaline-2,3-diyl)bis(phosphonic acid)] | > 100 |  |  | ameliorated the survival of the larvae in a dose-dependent manner | > 100 | > 25 | 100 (≈ 47.8 µg/mL) | > 100 | above 50 μM | > 100 | preserve the TEER value | > 100 | 82 ± 2 | > 100 | 100 | reduced effect | around 50%
